23 compounds from patent US8536183B2, “3-pyridylcarbonyl-piperazinylsulfonyl derivatives” (Convergence Pharmaceuticals Limited, priority 2008, dated 2013) can be followed below.

Where a name gives a salt, the structure may show the parent alone. Bounds are passed on as bounds.

In this assay the target is T1, hCaV2.2 (Homo sapiens, UniProt Q00975).
T1 construct: expressed in transfected cells; plasmids pCIN5-hCaV2.2, pCIH-hCaV β3, pCIP-α2δ1
The assay is described as follows: hCaV2.2 assay, IonWorks planar array electrophysiology in stably transfected HEK293 cells. Format: cell-based. The settings on record: current elicited by the 1st depolarising pulse inhibited by 50%; HEK293 cells expressing human CaV2.2 alpha/beta3/alpha2delta1; read-out: mean pIC50 (tonic pIC50) (converted). As for the experimental part: Compounds of the invention may be tested for in vitro biological activity in the hCaV2.2 assay in accordance with the following studies:
Stable cell lines expressing the human CaV2.2 α (als) subunit, along with the human […] and α2δ1 auxiliary subunits were created following sequential transfection and selection of human embryonic kidney (HEK293) cells. HEK293 cells were cultured in Dulbecco's modified Eagles media/F12 media (Invitrogen, Cat #041-95750V) containing 10% foetal bovine serum, with added L-glutamine (2 mM; Invitrogen, Cat #25030-024) and non-essential amino acids (5%; Invitrogen, Cat #11140-035). Initially HEK293 cells were transfected with two plasmid vectors for expression of the hCaV2.2 α subunit (pCIN5-hCaV2.2 which carries a neomycin resistance marker) and the hCaV β3 subunit (pCIH-hCaV β3 which carries a hygromycin resistance marker). Clonal cell lines were isolated following selection in media supplemented with 0.4 mg ml^−1 Geneticin G418 (Invitrogen, Cat #10131-027) and 0.1 mg ml^1 hygromycin (Invitrogen, Cat #10687-010). These clonal cell lines were assessed for Cav2.2α/β3-mediated current expression using the IonWorks planar array electrophysiology technology (described below). A clonal line was identified that gave a reasonable level of functional Cav2.2α/β3 current expression. This cell line was transfected with a plasmid vector for expression of the human […] subunit (pCIP-α2δ1 which carries a puromycin resistance marker) and clonal cell lines isolated following selection in media containing 0.62 μg ml^−1 puromycin (Sigma, Cat #P-7255), in addition to 0.4 mg ml^−1 Geneticin G418 and 0.1 mg ml^−1 hygromycin. Several cell lines were identified that gave robust levels of Cav2.2α/β3/α2δ1-mediated current expression and one of these was selected for compound profiling. Expression of all three subunits within this cell line was continuously maintained by the inclusion of G418 (0.4 mg ml^−1), hygromycin (0.1 mg ml^−1) and puromycin (0.62 μg ml^−1). Cells were maintained at 37° C. in a humidified environment containing 5% CO2 in air. Cells were liberated from the T175 culture flasks for passage and harvesting using TrpLE (Invitrogen, Cat #12604-013).
Cells were grown to 30-60% confluence in T175 flasks and maintained at 30° C. for 24 hrs prior to recording. Cells were lifted by removing the growth media, washing with Ca^2+ free PBS (Invitrogen, Cat #14190-094) and incubating with 3 ml of warmed (37° C.) TrpLE (Invitrogen, Cat #12604-013) for 6 minutes. Lifted cells were suspended in 10 ml of extracellular buffer. Cell suspension was then placed into a 15 ml tube and centrifuged for 2 minutes at 700 rpm. After centrifugation, the supernatant was removed and the cell pellet was resuspended in 4.5 ml of extracellular solution.
Currents were recorded at room temperature (21-23° C.) using the IonWorks planar array electrophysiology technology (Molecular Devices Corp.). Stimulation protocols and data acquisition were carried out using a microcomputer (Dell Pentium 4). In order to determine planar electrode hole resistances (Rp), a 10 mV, 160 ms potential difference was applied across each hole. These measurements were performed before cell addition. After cell addition a seal test was performed prior to antibiotic (amphotericin) circulation to achieve intracellular access. Leak subtraction was conducted in all experiments by applying a 160 ms hyperpolarizing (10 mV) prepulse 200 ms before the test pulses to measure leak conductance. Test pulses stepping from the holding potential (VH) of −90 mV to +10 mV were applied for 20 ms and repeated 10 times at a frequency of 10 Hz. In all experiments, the test pulse protocol was performed in the absence (pre-read) and presence (post-read) of a compound. Pre- and post-reads were separated by a compound addition followed by a 3-3.5 min incubation.
The intracellular solution contained the following (in mM): K-gluconate 120, KCl 20 mM, MgCl2 5, EGTA 5, HEPES 10, adjusted to pH 7.3. […]
(The patch-clamp technique gives a direct electrical read-out from membranes.)

T1 sequence (Q00975 whole entry): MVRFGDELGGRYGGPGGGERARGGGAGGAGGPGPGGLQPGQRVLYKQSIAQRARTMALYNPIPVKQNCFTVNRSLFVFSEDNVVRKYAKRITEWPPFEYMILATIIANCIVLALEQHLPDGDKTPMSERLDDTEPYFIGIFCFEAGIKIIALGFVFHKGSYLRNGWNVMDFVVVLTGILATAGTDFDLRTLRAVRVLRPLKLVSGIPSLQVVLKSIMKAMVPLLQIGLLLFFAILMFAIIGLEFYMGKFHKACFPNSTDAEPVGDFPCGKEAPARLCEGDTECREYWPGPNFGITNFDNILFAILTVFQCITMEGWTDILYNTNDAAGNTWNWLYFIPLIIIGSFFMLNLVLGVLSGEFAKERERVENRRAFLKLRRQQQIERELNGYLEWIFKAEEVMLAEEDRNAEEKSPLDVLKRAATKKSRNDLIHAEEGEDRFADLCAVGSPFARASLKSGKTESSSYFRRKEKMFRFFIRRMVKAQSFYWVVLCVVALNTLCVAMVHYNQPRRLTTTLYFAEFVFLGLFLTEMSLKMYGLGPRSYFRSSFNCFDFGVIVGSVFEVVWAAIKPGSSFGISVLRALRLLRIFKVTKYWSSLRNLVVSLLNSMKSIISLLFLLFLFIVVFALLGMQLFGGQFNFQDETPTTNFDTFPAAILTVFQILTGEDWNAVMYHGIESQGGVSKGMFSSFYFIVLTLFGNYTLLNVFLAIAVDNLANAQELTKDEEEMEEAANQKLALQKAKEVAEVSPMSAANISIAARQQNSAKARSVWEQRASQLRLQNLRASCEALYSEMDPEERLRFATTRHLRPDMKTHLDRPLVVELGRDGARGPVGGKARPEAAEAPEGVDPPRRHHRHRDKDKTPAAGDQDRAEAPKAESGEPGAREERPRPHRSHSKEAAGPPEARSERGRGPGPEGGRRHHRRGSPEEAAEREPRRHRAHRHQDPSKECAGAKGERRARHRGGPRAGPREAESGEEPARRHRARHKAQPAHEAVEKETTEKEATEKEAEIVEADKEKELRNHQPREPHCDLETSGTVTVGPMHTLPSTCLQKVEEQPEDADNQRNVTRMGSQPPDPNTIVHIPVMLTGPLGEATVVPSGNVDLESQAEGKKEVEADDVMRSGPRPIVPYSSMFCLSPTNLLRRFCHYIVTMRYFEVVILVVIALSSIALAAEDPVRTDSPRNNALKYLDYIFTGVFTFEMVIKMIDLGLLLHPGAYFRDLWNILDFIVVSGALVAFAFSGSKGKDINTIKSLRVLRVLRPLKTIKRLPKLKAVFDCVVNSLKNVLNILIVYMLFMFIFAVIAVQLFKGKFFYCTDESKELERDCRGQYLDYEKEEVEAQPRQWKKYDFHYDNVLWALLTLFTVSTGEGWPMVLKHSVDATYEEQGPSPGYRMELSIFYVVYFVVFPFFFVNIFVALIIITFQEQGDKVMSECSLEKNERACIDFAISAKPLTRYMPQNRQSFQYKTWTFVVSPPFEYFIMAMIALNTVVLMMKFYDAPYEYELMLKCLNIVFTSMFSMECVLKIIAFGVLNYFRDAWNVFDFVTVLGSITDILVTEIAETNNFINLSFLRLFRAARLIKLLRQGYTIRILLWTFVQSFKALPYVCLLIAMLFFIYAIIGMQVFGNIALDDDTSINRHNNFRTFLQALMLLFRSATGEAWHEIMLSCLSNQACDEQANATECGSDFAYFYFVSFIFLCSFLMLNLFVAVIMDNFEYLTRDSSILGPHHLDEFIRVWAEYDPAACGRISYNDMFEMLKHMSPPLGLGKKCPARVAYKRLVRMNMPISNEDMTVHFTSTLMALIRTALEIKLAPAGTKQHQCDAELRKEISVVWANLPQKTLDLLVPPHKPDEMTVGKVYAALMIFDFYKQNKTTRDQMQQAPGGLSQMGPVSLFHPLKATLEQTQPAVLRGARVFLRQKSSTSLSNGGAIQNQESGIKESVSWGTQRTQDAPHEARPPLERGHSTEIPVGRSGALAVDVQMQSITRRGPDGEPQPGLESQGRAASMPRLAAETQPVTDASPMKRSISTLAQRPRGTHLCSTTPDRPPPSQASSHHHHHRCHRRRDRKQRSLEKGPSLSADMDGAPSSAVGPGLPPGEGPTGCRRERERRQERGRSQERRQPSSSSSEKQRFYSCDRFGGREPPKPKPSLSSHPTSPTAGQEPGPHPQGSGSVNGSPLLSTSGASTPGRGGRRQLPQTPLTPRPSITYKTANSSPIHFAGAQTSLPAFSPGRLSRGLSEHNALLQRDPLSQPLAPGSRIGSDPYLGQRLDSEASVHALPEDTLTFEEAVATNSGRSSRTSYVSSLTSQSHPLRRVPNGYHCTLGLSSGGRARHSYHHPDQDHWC

As to `C[C@H]1CN(S(=O)(=O)c2ccc(C(F)(F)F)cc2)CCN1C(=O)c1ccc(N2CCC2)nc1` [Example 45, (2S)-1-{[6-(1-Azetidinyl)-3-pyridinyl]carbonyl}-2-methyl-4-{[4-(trifluoromethyl)phenyl]sulfonyl}piperazine hydrochloride], the IC50 was at least 10 µM. To `Cc1cc(N2CCOCC2)ncc1C(=O)N1CCN(S(=O)(=O)c2ccc(C(F)(F)F)cc2)C[C@@H]1C` [Example 47, 4-{4-Methyl-5-[((2S)-2-methyl-4-{[4-(trifluoromethyl)phenyl]sulfonyl}-1-piperazinyl)carbonyl]-2-pyridinyl}morpholine hydrochloride] belongs at least 10 µM; to `Cc1ccc(C(=O)N2CCN(S(=O)(=O)c3ccc(C#N)cc3C)[C@@H](C)C2)cn1` [Example 52, 3-methyl-4-({(2S)-2-methyl-4-[(6-methyl-3-pyridinyl)carbonyl]-1-piperazinyl}sulfonyl)benzonitrile hydrochloride], at least 31.6 µM. To `CCc1ccc(C(=O)N2CCN(S(=O)(=O)c3ccc(C#N)cc3C)C[C@@H]2C)cn1` [Example 53, 4-({(3S)-4-[(6-ethyl-3-pyridinyl)carbonyl]-3-methyl-1-piperazinyl}sulfonyl)-3-methylbenzonitrile hydrochloride] belongs at least 31.6 µM.

In the case of `CCN(CC)c1ccc(C(=O)N2CCN(S(=O)(=O)c3ccc(C(F)(F)F)cc3)CC2)cn1` [Example 56, N,N-diethyl-5-[(4-{[4-(trifluoromethyl)phenyl]sulfonyl}-1-piperazinyl)carbonyl]-2-pyridinamine], the IC50 is at least 10 µM. To `CN(C)c1ccc(C(=O)N2CCN(S(=O)(=O)c3ccc(C(F)(F)F)cc3)CC2)cn1` [Example 57, N,N-dimethyl-5-[(4-{[4-(trifluoromethyl)phenyl]sulfonyl}-1-piperazinyl)carbonyl]-2-pyridinamine] belongs at least 31.6 µM; to `Cc1ncccc1C(=O)N1CCN(S(=O)(=O)c2ccc(OC(F)(F)F)cc2)C[C@H]1C` [Example 58, (2R)-2-methyl-1-[(2-methyl-3-pyridinyl)carbonyl]-4-({4-[(trifluoromethyl)oxy]phenyl}sulfonyl)piperazine], at least 31.6 µM. To `Cc1ccc(C(=O)N2CCN(S(=O)(=O)c3cc(C(F)(F)F)ccc3C)C[C@@H]2C)cn1` [Example 59, (2S)-2-methyl-1-[(6-methyl-3-pyridinyl)carbonyl]-4-{[2-methyl-5-(trifluoromethyl)phenyl]sulfon-yl}piperazine] belongs at least 31.6 µM.

Take `Cc1ccc(C(F)(F)F)cc1S(=O)(=O)N1CCN(C(=O)c2cccnc2C)[C@@H](C)C1` [Example 60, (2S)-2-methyl-1-[(2-methyl-3-pyridinyl)carbonyl]-4-{[2-methyl-5-(trifluoromethyl)phenyl]sulfon-yl}piperazine]: the IC50 is at least 10 µM. Regarding `Cc1ccc(C(=O)N2CCN(S(=O)(=O)c3cc(C(F)(F)F)ccc3C)CC2)cn1` [Example 61, 1-[(6-methyl-3-pyridinyl)carbonyl]-4-{[2-methyl-5-(trifluoromethyl)phenyl]sulfon-yl}piperazine], the IC50 is at least 31.6 µM.

With `Cc1ccc(C(F)(F)F)cc1S(=O)(=O)N1CCN(C(=O)c2cccnc2C)CC1` [Example 62, 1-[(2-methyl-3-pyridinyl)carbonyl]-4-{[2-methyl-5-(trifluoromethyl)phenyl]sulfon-yl}piperazine], the IC50 was at least 31.6 µM. `Cc1ccc(C(=O)N2CCN(S(=O)(=O)c3ccc(C#N)cc3C)C[C@H]2C)cn1` [Example 63, 3-methyl-4-({(3R)-3-methyl-4-[(6-methyl-3-pyridinyl)carbonyl]-1-piperazinyl}sulfonyl)benzo-nitrile]: the IC50 is at least 31.6 µM. To `Cc1ncccc1C(=O)N1CCN(S(=O)(=O)c2ccc(OC(F)(F)F)cc2)C[C@@H]1C` [Example 64, (2S)-2-methyl-1-[(2-methyl-3-pyridinyl)carbonyl]-4-({4-[(trifluoromethyl)oxy]phenyl}sulfonyl)piperazine] belongs at least 31.6 µM; to `Cc1ncccc1C(=O)N1CCN(S(=O)(=O)c2ccc(OC(F)(F)F)cc2)C[C@H]1C` [Example 65, (2R)-2-methyl-1-[(2-methyl-3-pyridinyl)carbonyl]-4-({4-[(trifluoromethyl)oxy]phenyl}sulfonyl)piperazine], at least 31.6 µM. As to `Nc1ccc(C(=O)N2CCN(S(=O)(=O)c3ccc(C(F)(F)F)cc3)CC2)cn1` [Example 66, 5-[(4-{[4-(trifluoromethyl)phenyl]sulfon-yl}-1-piperazinyl)carbonyl]-2-pyridinamine], the IC50 was at least 31.6 µM. Take `Cc1ccc(C(=O)N2CCN(S(=O)(=O)c3ccc(C#N)cc3C)C[C@@H]2C)c(C)n1` [Example 67, 4-({(3S)-4-[(2,6-dimethyl-3-pyridinyl)carbonyl]-3-methyl-1-piperazinyl}sulfonyl)-3-methylbenzonitrile]: the IC50 was at least 31.6 µM. Turning to `Cc1cc(C)c(C(=O)N2CCN(S(=O)(=O)c3ccc(C#N)cc3C)C[C@@H]2C)cn1` [Example 68, 4-({(3S)-4-[(4,6-dimethyl-3-pyridinyl)carbonyl]-3-methyl-1-piperazinyl}sulfonyl)-3-methylbenzonitrile], the IC50 is at least 31.6 µM.

With `O=C(c1ccc(N2CCCC2)nc1)N1CCN(S(=O)(=O)c2ccc(C(F)(F)F)cc2)CC1` [Example 69, 1-{[6-(1-pyrrolidinyl)-3-pyridinyl]carbonyl}-4-{[4-(trifluoromethyl)phenyl]sulfon-yl}piperazine], the IC50 was at least 31.6 µM. As to `O=C(c1ccc(NC2CCOCC2)nc1)N1CCN(S(=O)(=O)c2ccc(C(F)(F)F)cc2)CC1` [Example 70, N-(tetrahydro-2H-pyran-4-yl)-5-[(4-{[4-(trifluoromethyl)phenyl]sulfon-yl}-1-piperazinyl)carbonyl]-2-pyridinamine], the IC50 was at least 31.6 µM. Turning to `Cc1cc(C#N)ccc1S(=O)(=O)N1CCN(C(=O)c2ccc(N(C)C)nc2)[C@@H](C)C1` [Example 71, 4-[((3S)-4-{[6-(dimethylamino)-3-pyridinyl]carbonyl}-3-methyl-1-piperazinyl)sulfonyl]-3-methylbenzonitrile], the IC50 is at least 31.6 µM. The result for `Cc1ccc(C(=O)N2CCN(S(=O)(=O)c3ccc(C#N)cc3)C[C@@H]2C)cn1` [Example 72, 4-({(3S)-3-methyl-4-[(6-methyl-3-pyridinyl)carbonyl]-1-piperazinyl}sulfonyl)benzo-nitrile] reads at least 31.6 µM; that for `Cc1ccc(C(=O)N2CCN(S(=O)(=O)c3ccc(OC(F)F)cc3)CC2)cn1` [Example 73, 1-({4-[(difluoromethyl)oxy]phenyl}sulfonyl)-4-[(6-methyl-3-pyridinyl)carbonyl]piperazine], at least 31.6 µM. On to `Cc1ccc(C(=O)N2CCN(S(=O)(=O)c3ccc(C(F)(F)F)cc3C)CC2)cn1` [Example 74, 1-[(6-methyl-3-pyridinyl)carbonyl]-4-{[2-methyl-4-(trifluoromethyl)phenyl]sulfonyl}piperazine], for which the IC50 was at least 31.6 µM.
